Results reported in patent publication US6737383B1, “Herbicidal oxadiazolidines” (priority 1999, dated 2004).

Key:
Johnson grass = assay: Test D Johnson grass; assay type: in vivo, Sorghum halepense; conditions: Postemergence, 0 to 100 scale
common groundsel = assay: Test D common groundsel; assay type: in vivo, Senecio vulgaris; conditions: Postemergence, 0 to 100 scale
Green foxtail [1] = assay: Test D green foxtail; assay type: in vivo; conditions: Postemergence, 0 to 100 scale, 0 no injury, 100 complete control
itchgrass = assay: Test D itchgrass; assay type: in vivo, Rottboellia exaltata; conditions: Postemergence, 0 to 100 scale
common pursiane = assay: Test D common purslane; assay type: in vivo, Portulaca oleracea; conditions: Postemergence, 0 to 100 scale
common ragweed = assay: Test D common ragweed; assay type: in vivo, Ambrosia elatior
Green foxtail [2] = assay: Test D green foxtail; assay type: in vivo; conditions: Postemergence, 0 to 100 scale, 0 no injury, 100 complete control; remark: listed apart in the source
Green foxtail [3] = assay: Test D green foxtail; assay type: in vivo; conditions: Postemergence, 0 to 100 scale, 0 no injury, 100 complete control; remark: listed apart in the source
goosegrass = assay: Test D goosegrass; assay type: in vivo, Eleusine indica; conditions: Postemergence, 0 to 100 scale
sandbur = assay: Test D sandbur; assay type: in vivo, Cenchrus echinatus; conditions: Postemergence, 0 to 100 scale
dallisgrass = assay: Test D dallisgrass; assay type: in vivo, Paspalum dilatatum; conditions: Postemergence, 0 to 100 scale
guineagrass = assay: Test D guineagrass; assay type: in vivo, Panicum maximum; conditions: Postemergence, 0 to 100 scale
Alexandergrass = assay: Test D Alexandergrass; assay type: in vivo, Brachiaria plantaginea; conditions: Postemergence, 0 to 100 scale
Green foxtail [4] = assay: Test D green foxtail; assay type: in vivo; conditions: Postemergence, 0 to 100 scale, 0 no injury, 100 complete control; remark: listed apart in the source
Spanishneedles = assay: Test D Spanishneedles; assay type: in vivo, Bidens bipinnata
[5] = Rate 16 g/ha, 0 no injury, 100 complete control
[6] = Rate 32 g/ha, 0 no injury, 100 complete control
[7] = Rate 64 g/ha, 0 no injury, 100 complete control
[8] = Rate 125 g/ha, 0 no injury, 100 complete control
[9] = Rate 16 g/ha; Postemergence; 0 to 100 scale, 0 no injury, 100 complete control
[10] = Rate 32 g/ha; Postemergence; 0 to 100 scale, 0 no injury, 100 complete control
[11] = Rate 64 g/ha, Postemergence; 0 to 100 scale, 0 no injury, 100 complete control
[12] = Rate 125 g/ha, Postemergence; 0 to 100 scale, 0 no injury, 100 complete control
[13] = Rate 250 g/ha; Postemergence; 0 to 100 scale

Structure (SMILES): CC(C)N(C(=O)n1oc(=O)n(C2CC2)c1=O)c1ccccc1 [Compound 243]
- Plant response rating Johnsongrass (Johnson grass; [5]): 0
- Plant response rating Johnsongrass (Johnson grass; [6]): 0
- Plant response rating Johnsongrass (Johnson grass; [7]): 0
- Plant response rating Johnsongrass (Johnson grass; [8]): 30
- Plant response rating Johnsongrass (Johnson grass; Rate 250 g/ha): 100
- Plant response rating, Com. groundsel (common groundsel; [5]): 0
- Plant response rating, Com. groundsel (common groundsel; [6]): 0
- Plant response rating, Com. groundsel (common groundsel; [7]): 0
- Plant response rating, Com. groundsel (common groundsel; [8]): 100
- Plant response rating, Com. groundsel (common groundsel; Rate 250 g/ha): 100
- Plant response rating, Green foxtail (Green foxtail [1]; Rate 16 g/ha): 10
- Plant response rating, Green foxtail (Green foxtail [1]; Rate 32 g/ha): 100
- Plant response rating, Itchgrass (itchgrass; [5]): 0
- Plant response rating, Itchgrass (itchgrass; [6]): 0
- Plant response rating, Itchgrass (itchgrass; [7]): 0
- Plant response rating, Itchgrass (itchgrass; [8]): 10
- Plant response rating, Itchgrass (itchgrass; Rate 250 g/ha): 100
- Plant response rating, C. purslane (common pursiane; [5]): 0
- Plant response rating, C. purslane (common pursiane; [6]): 0
- Plant response rating, C. purslane (common pursiane; [7]): 0
- Plant response rating, C. purslane (common pursiane; [8]): 0
- Plant response rating, C. purslane (common pursiane; Rate 250 g/ha): 0
- Plant response rating, C. ragweed (common ragweed; [9]): 0
- Plant response rating, C. ragweed (common ragweed; [10]): 0
- Plant response rating, C. ragweed (common ragweed; [11]): 10
- Plant response rating, C. ragweed (common ragweed; [12]): 10
- Plant response rating, C. ragweed (common ragweed; [13]): 60
- Plant response rating, Green foxtail (Green foxtail [2]; Rate 16 g/ha): 10
- Plant response rating, Green foxtail (Green foxtail [2]; Rate 32 g/ha): 100
- Plant response rating, Green foxtail (Green foxtail [3]; Rate 64 g/ha): 100
- Plant response rating, Green foxtail (Green foxtail [3]; Rate 125 g/ha): 100
- Plant response rating, Goosegrass (goosegrass; [5]): 70
- Plant response rating, Goosegrass (goosegrass; [6]): 80
- Plant response rating, Goosegrass (goosegrass; [7]): 100
- Plant response rating, Goosegrass (goosegrass; [8]): 100
- Plant response rating, Goosegrass (goosegrass; Rate 250 g/ha): 100
- Plant response rating, Sandbur (sandbur; [5]): 10
- Plant response rating, Sandbur (sandbur; [6]): 20
- Sandbur plant response rating (sandbur; [7]): 30
- Sandbur plant response rating (sandbur; [8]): 30
- Plant response rating, Sandbur (sandbur; Rate 250 g/ha): 100
- Plant response rating, Dallisgrass (dallisgrass; [5]): 0
- Plant response rating, Dallisgrass (dallisgrass; [6]): 50
- Plant response rating, Dallisgrass (dallisgrass; [7]): 70
- Plant response rating, Dallisgrass (dallisgrass; [8]): 100
- Plant response rating, Dallisgrass (dallisgrass; Rate 250 g/ha): 100
- Plant response rating, Guineagrass (guineagrass; [5]): 0
- Plant response rating, Guineagrass (guineagrass; [6]): 0
- Guineagrass plant response rating (guineagrass; [7]): 0
- Plant response rating, Guineagrass (guineagrass; [7]): 20
- Plant response rating, Guineagrass (guineagrass; [8]): 100
- Plant response rating, Guineagrass (guineagrass; Rate 250 g/ha): 100
- Plant response rating, Alexandergrass (Alexandergrass; [5]): 0
- Plant response rating, Alexandergrass (Alexandergrass; [6]): 0
- Plant response rating, Alexandergrass (Alexandergrass; [7]): 20
- Plant response rating, Alexandergrass (Alexandergrass; [8]): 100
- Plant response rating, Alexandergrass (Alexandergrass; Rate 250 g/ha): 100
- Green foxtail plant response rating (Green foxtail [4]; Rate 64 g/ha): 100
- Green foxtail plant response rating (Green foxtail [4]; Rate 125 g/ha): 100
- Plant response rating, Spanishneedles (Spanishneedles; Postemergence; Rate 32 g/ha; 0 to 100 scale, 0 no injury, 100 complete control): 50
- Plant response rating, Spanishneedles (Spanishneedles; [9]): 0
- Plant response rating, Spanishneedles (Spanishneedles; [10]): 0
- Spanishneedles plant response rating (Spanishneedles; [11]): 50
- Spanishneedles plant response rating (Spanishneedles; [12]): 20
- Plant response rating, Spanishneedles (Spanishneedles; [13]): 100

Structure (SMILES): COCC(C)n1c(=O)on(C(=O)N(c2ccc(F)cc2F)C(C)C)c1=O (centres unmarked) [Compound 352]
- Plant response rating Johnsongrass (Johnson grass; [5]): 0
- Plant response rating Johnsongrass (Johnson grass; [6]): 0
- Plant response rating Johnsongrass (Johnson grass; [7]): 0
- Plant response rating Johnsongrass (Johnson grass; [8]): 40
- Plant response rating Johnsongrass (Johnson grass; Rate 250 g/ha): 80
- Plant response rating, Com. groundsel (common groundsel; [6]): 0
- Plant response rating, Com. groundsel (common groundsel; [7]): 50
- Plant response rating, Com. groundsel (common groundsel; [8]): 100
- Plant response rating, Com. groundsel (common groundsel; Rate 250 g/ha): 100
- Plant response rating, Green foxtail (Green foxtail [1]; Rate 16 g/ha): 0
- Plant response rating, Green foxtail (Green foxtail [1]; Rate 32 g/ha): 100
- Plant response rating, Itchgrass (itchgrass; [5]): 0
- Plant response rating, Itchgrass (itchgrass; [6]): 0
- Plant response rating, Itchgrass (itchgrass; [7]): 0
- Plant response rating, Itchgrass (itchgrass; [8]): 20
- Plant response rating, Itchgrass (itchgrass; Rate 250 g/ha): 60
- Plant response rating, C. purslane (common pursiane; [5]): 0
- Plant response rating, C. purslane (common pursiane; [6]): 0
- Plant response rating, C. purslane (common pursiane; [7]): 0
- Plant response rating, C. purslane (common pursiane; [8]): 0
- Plant response rating, C. purslane (common pursiane; Rate 250 g/ha): 0
- Plant response rating, C. ragweed (common ragweed; Postemergence; Rate 16 g/ha; 0 to 100 scale, 0 no injury, 100 complete control): 0
- Plant response rating, C. ragweed (common ragweed; [10]): 0
- Plant response rating, C. ragweed (common ragweed; [11]): 20
- Plant response rating, C. ragweed (common ragweed; [12]): 20
- Plant response rating, C. ragweed (common ragweed; [13]): 100
- Plant response rating, Green foxtail (Green foxtail [2]; Rate 16 g/ha): 0
- Plant response rating, Green foxtail (Green foxtail [2]; Rate 32 g/ha): 100
- Plant response rating, Green foxtail (Green foxtail [3]; Rate 64 g/ha): 100
- Plant response rating, Green foxtail (Green foxtail [3]; Rate 125 g/ha): 100
- Plant response rating, Goosegrass (goosegrass; [5]): 0
- Plant response rating, Goosegrass (goosegrass; [6]): 90
- Plant response rating, Goosegrass (goosegrass; [7]): 100
- Plant response rating, Goosegrass (goosegrass; [8]): 100
- Plant response rating, Goosegrass (goosegrass; Rate 250 g/ha): 100
- Plant response rating, Sandbur (sandbur; [5]): 0
- Plant response rating, Sandbur (sandbur; [6]): 90
- Sandbur plant response rating (sandbur; [7]): 70
- Sandbur plant response rating (sandbur; [8]): 100
- Plant response rating, Sandbur (sandbur; Rate 250 g/ha): 100
- Plant response rating, Dallisgrass (dallisgrass; [5]): 0
- Plant response rating, Dallisgrass (dallisgrass; [6]): 70
- Plant response rating, Dallisgrass (dallisgrass; [7]): 80
- Plant response rating, Dallisgrass (dallisgrass; [8]): 100
- Plant response rating, Dallisgrass (dallisgrass; Rate 250 g/ha): 100
- Plant response rating, Guineagrass (guineagrass; [5]): 0
- Plant response rating, Guineagrass (guineagrass; [6]): 0
- Guineagrass plant response rating (guineagrass; [7]): 20
- Plant response rating, Guineagrass (guineagrass; [7]): 60
- Plant response rating, Guineagrass (guineagrass; [8]): 80
- Plant response rating, Guineagrass (guineagrass; Rate 250 g/ha): 100
- Plant response rating, Alexandergrass (Alexandergrass; [5]): 0
- Plant response rating, Alexandergrass (Alexandergrass; [6]): 60
- Plant response rating, Alexandergrass (Alexandergrass; [7]): 80
- Plant response rating, Alexandergrass (Alexandergrass; [8]): 100
- Plant response rating, Alexandergrass (Alexandergrass; Rate 250 g/ha): 100
- Green foxtail plant response rating (Green foxtail [4]; Rate 64 g/ha): 100
- Green foxtail plant response rating (Green foxtail [4]; Rate 125 g/ha): 100
- Plant response rating, Spanishneedles (Spanishneedles; [9]): 0
- Plant response rating, Spanishneedles (Spanishneedles; [10]): 0
- Spanishneedles plant response rating (Spanishneedles; [11]): 0
- Spanishneedles plant response rating (Spanishneedles; [12]): 40
- Plant response rating, Spanishneedles (Spanishneedles; [13]): 30
